Data published in patent publication US20240025884A1 (Dong-A ST Co., Ltd., priority 2022, published 2024).

Biological target: GCN2 (Homo sapiens (Human), UniProt Q9P2K8)
Assay: GCN2 Biochemical Assay (TR-FRET, GFP-eIF2S1 substrate phosphorylation)
Settings: read-out: IC50 (GCN2 Inhibitory Activity)
Outline: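 TR-FRET readout (Ex 340, Em 490/520 nm) after 2–3 h with Tb-labelled phospho-eIF2S1 antibody in stop mix, following a 70 min room-temperature kinase step. Reaction: in-house GCN2, GFP-eIF2S1, ATP, tRNA in Tris pH 7.5 (2× stocks 1.6 nM, 50 nM, 0.2 mM); compounds tested at 10 concentrations, with a phospho-substrate artifact counter-plate.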

Chain of GCN2 (Q9P2K8 whole entry): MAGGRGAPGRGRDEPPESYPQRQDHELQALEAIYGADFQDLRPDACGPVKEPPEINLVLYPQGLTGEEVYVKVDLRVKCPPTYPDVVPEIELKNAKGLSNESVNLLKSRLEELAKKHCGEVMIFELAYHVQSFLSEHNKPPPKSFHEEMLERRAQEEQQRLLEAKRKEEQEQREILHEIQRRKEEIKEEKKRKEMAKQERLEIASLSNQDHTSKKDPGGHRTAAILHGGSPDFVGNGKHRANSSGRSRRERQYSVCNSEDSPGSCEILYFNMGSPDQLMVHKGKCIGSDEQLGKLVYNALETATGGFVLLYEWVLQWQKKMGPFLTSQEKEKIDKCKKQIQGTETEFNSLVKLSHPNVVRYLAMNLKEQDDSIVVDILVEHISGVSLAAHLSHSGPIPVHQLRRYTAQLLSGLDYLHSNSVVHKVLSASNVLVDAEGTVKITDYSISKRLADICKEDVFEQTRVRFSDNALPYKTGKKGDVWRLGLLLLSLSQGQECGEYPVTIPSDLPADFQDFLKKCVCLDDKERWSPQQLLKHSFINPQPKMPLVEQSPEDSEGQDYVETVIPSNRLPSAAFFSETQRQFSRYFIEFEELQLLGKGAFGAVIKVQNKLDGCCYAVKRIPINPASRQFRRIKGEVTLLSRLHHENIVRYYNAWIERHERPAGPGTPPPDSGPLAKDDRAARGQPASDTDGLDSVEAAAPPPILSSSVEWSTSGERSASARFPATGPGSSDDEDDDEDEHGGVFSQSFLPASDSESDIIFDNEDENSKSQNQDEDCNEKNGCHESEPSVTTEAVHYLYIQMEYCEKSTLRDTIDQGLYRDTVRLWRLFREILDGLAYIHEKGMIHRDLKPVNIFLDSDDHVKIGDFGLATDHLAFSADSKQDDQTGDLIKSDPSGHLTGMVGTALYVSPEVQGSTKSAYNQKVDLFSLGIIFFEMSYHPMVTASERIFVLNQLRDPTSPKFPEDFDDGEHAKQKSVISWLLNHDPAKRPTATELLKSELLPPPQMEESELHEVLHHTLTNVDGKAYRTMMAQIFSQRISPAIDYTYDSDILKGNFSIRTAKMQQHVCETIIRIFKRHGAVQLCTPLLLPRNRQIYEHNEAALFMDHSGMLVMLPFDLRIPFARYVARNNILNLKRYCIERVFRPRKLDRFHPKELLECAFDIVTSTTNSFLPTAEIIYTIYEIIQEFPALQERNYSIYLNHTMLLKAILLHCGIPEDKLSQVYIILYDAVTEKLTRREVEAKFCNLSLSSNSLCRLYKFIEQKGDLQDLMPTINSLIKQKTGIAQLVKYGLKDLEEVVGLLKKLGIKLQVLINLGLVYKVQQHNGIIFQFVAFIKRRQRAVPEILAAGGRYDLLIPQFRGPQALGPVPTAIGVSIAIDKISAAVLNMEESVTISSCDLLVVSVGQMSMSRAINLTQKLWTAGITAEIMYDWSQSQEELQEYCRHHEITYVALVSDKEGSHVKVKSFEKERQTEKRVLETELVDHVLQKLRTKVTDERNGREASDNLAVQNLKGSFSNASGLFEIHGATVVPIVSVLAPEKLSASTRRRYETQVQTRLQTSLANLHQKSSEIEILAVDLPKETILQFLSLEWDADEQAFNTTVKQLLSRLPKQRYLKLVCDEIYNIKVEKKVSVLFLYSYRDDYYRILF

Row | IC50 | SMILES
1 | < 10 nM | Cc1cnc(Nc2cc(C)n(C)n2)nc1-c1c[nH]c2c(N3Cc4c(NC(=O)C5CCC(=O)CC5)cccc4C3=O)cccc12 [Example 320, N-(2-(3-(2-((1,5-dimethyl-1H-pyrazol-3-yl)amino)-5-methylpyrimidin-4-yl)-1H-indol-7-yl)-1-oxoisoindolin-4-yl)-4-oxocyclohexane-1-carboxamide]
2 | < 10 nM | Cc1cnc(Nc2cc(C)n(C)n2)nc1-c1c[nH]c2c(N3Cc4c(NC(=O)c5cnoc5C)cccc4C3=O)cccc12 [Example 321, N-(2-(3-(2-((1,5-dimethyl-1H-pyrazol-3-yl)amino)-5-methylpyrimidin-4-yl)-1H-indol-7-yl)-1-oxoisoindolin-4-yl)-5-methylisoxazole-4-carboxamide]
3 | < 10 nM | Cc1nc(C(=O)Nc2cccc3c2CN(c2cccc4c(-c5nc(Nc6cc(C)n(C)n6)ncc5C)c[nH]c24)C3=O)co1 [Example 322, N-(2-(3-(2-((1,5-dimethyl-1H-pyrazol-3-yl)amino)-5-methylpyrimidin-4-yl)-1H-indol-7-yl)-1-oxoisoindolin-4-yl)-2-methyloxazole-4-carboxamide]
4 | < 10 nM | Cc1cnc(Nc2cc(C)n(C)n2)nc1-c1c[nH]c2c(N3Cc4c(NC(=O)c5cnco5)cccc4C3=O)cccc12 [Example 323, N-(2-(3-(2-((1,5-dimethyl-1H-pyrazol-3-yl)amino)-5-methylpyrimidin-4-yl)-1H-indol-7-yl)-1-oxoisoindolin-4-yl)oxazole-5-carboxamide]
5 | 10 to 100 nM | Cc1cnc(Nc2cc(C)n(C)n2)nc1-c1c[nH]c2c(N3Cc4c(NC(=O)c5ccon5)cccc4C3=O)cccc12 [Example 324, N-(2-(3-(2-((1,5-dimethyl-1H-pyrazol-3-yl)amino)-5-methylpyrimidin-4-yl)-1H-indol-7-yl)-1-oxoisoindolin-4-yl)isoxazole-3-carboxamide]
6 | 10 to 100 nM | Cc1cc(C(=O)Nc2cccc3c2CN(c2cccc4c(-c5nc(Nc6cc(C)n(C)n6)ncc5C)c[nH]c24)C3=O)no1 [Example 325, N-(2-(3-(2-((1,5-dimethyl-1H-pyrazol-3-yl)amino)-5-methylpyrimidin-4-yl)-1H-indol-7-yl)-1-oxoisoindolin-4-yl)-5-methylisoxazole-3-carboxamide]
7 | < 10 nM | Cc1cnc(Nc2cc(C)n(C)n2)nc1-c1c[nH]c2c(N3Cc4c(NC(=O)C5CCOC5)cccc4C3=O)cccc12 (centres unmarked) [Example 326, N-(2-(3-(2-((1,5-dimethyl-1H-pyrazol-3-yl)amino)-5-methylpyrimidin-4-yl)-1H-indol-7-yl)-1-oxoisoindolin-4-yl)tetrahydrofuran-3-carboxamide]
8 | < 10 nM | Cc1cnc(Nc2cc(C)n(C)n2)nc1-c1c[nH]c2c(N3Cc4c(NC(=O)C5CCCOC5)cccc4C3=O)cccc12 (centres unmarked) [Example 327, N-(2-(3-(2-((1,5-dimethyl-1H-pyrazol-3-yl)amino)-5-methylpyrimidin-4-yl)-1H-indol-7-yl)-1-oxoisoindolin-4-yl)tetrahydro-2H-pyran-3-carboxamide]
9 | < 10 nM | Cc1cnc(Nc2cc(C)n(C)n2)nc1-c1c[nH]c2c(N3Cc4c(NC(=O)C5(C)CCOCC5)cccc4C3=O)cccc12 [Example 328, N-(2-(3-(2-((1,5-dimethyl-1H-pyrazol-3-yl)amino)-5-methylpyrimidin-4-yl)-1H-indol-7-yl)-1-oxoisoindolin-4-yl)-4-methyltetrahydro-2H-pyran-4-carboxamide]
10 | 100 to 1000 nM | Cc1cnc(Nc2cc(C)n(C)n2)nc1-c1c[nH]c2c(N3Cc4c(NC(=O)C5CCCC(C)C5)cccc4C3=O)cccc12 (centres unmarked) [Example 329, N-(2-(3-(2-((1,5-dimethyl-1H-pyrazol-3-yl)amino)-5-methylpyrimidin-4-yl)-1H-indol-7-yl)-1-oxoisoindolin-4-yl)-3-methylcyclohexane-1-carboxamide]
11 | 10 to 100 nM | CC1=CCC(C(=O)Nc2cccc3c2CN(c2cccc4c(-c5nc(Nc6cc(C)n(C)n6)ncc5C)c[nH]c24)C3=O)CC1 (centres unmarked) [Example 330, N-(2-(3-(2-((1,5-dimethyl-1H-pyrazol-3-yl)amino)-5-methylpyrimidin-4-yl)-1H-indol-7-yl)-1-oxoisoindolin-4-yl)-4-methylcyclohex-3-ene-1-carboxamide]
12 | < 10 nM | Cc1cnc(Nc2cc(C)n(C)n2)nc1-c1c[nH]c2c(N3Cc4c(NC(=O)[C@H]5C[C@H](N)CN5)cccc4C3=O)cccc12 [Example 331, (2R,4S)-4-amino-N-(2-(3-(2-((1,5-dimethyl-1H-pyrazol-3-yl)amino)-5-methylpyrimidin-4-yl)-1H-indol-7-yl)-1-oxoisoindolin-4-yl)pyrrolidine-2-carboxamide]
13 | < 10 nM | Cc1cnc(Nc2cc(C)n(C)n2)nc1-c1c[nH]c2c(N3Cc4c(NC(=O)C5(C)CCCNC5)cccc4C3=O)cccc12 (centres unmarked) [Example 332, N-(2-(3-(2-((1,5-dimethyl-1H-pyrazol-3-yl)amino)-5-methylpyrimidin-4-yl)-1H-indol-7-yl)-1-oxoisoindolin-4-yl)-3-methylpiperidine-3-carboxamide]
14 | < 10 nM | Cc1cnc(Nc2cc(C)n(C)n2)nc1-c1c[nH]c2c(N3Cc4c(NC(=O)[C@@H]5CCN(C)C5)cccc4C3=O)cccc12 [Example 333, (R)-N-(2-(3-(2-((1,5-dimethyl-1H-pyrazol-3-yl)amino)-5-methylpyrimidin-4-yl)-1H-indol-7-yl)-1-oxoisoindolin-4-yl)-1-methylpyrrolidine-3-carboxamide]

The remaining lines, values behind:

Row | SMILES | IC50
15 | Cc1cnc(Nc2cc(C)n(C)n2)nc1-c1c[nH]c2c(N3Cc4c(NC(=O)C5CCC(=O)N5)cccc4C3=O)cccc12 (centres unmarked) [Example 308, N-(2-(3-(2-((1,5-dimethyl-1H-pyrazol-3-yl)amino)-5-methylpyrimidin-4-yl)-1H-indol-7-yl)-1-oxoisoindolin-4-yl)-5-oxopyrrolidine-2-carboxamide] | < 10 nM
16 | Cc1cnc(Nc2cc(C)n(C)n2)nc1-c1c[nH]c2c(N3Cc4c(NC(=O)C5CC=CCC5)cccc4C3=O)cccc12 (centres unmarked) [Example 309, N-(2-(3-(2-((1,5-dimethyl-1H-pyrazol-3-yl)amino)-5-methylpyrimidin-4-yl)-1H-indol-7-yl)-1-oxoisoindolin-4-yl)cyclohex-3-ene-1-carboxamide] | 10 to 100 nM
17 | Cc1cnc(Nc2cc(C)n(C)n2)nc1-c1c[nH]c2c(N3Cc4c(NC(=O)C5CC=CC5)cccc4C3=O)cccc12 [Example 310, N-(2-(3-(2-((1,5-dimethyl-1H-pyrazol-3-yl)amino)-5-methylpyrimidin-4-yl)-1H-indol-7-yl)-1-oxoisoindolin-4-yl)cyclopent-3-ene-1-carboxamide] | < 10 nM
18 | Cc1cnc(Nc2cc(C)n(C)n2)nc1-c1c[nH]c2c(N3Cc4c(NC(=O)C5(C)CC=CC5)cccc4C3=O)cccc12 [Example 311, N-(2-(3-(2-((1,5-dimethyl-1H-pyrazol-3-yl)amino)-5-methylpyrimidin-4-yl)-1H-indol-7-yl)-1-oxoisoindolin-4-yl)-1-methylcyclopent-3-ene-1-carboxamide] | 10 to 100 nM
19 | Cc1cnc(Nc2cc(C)n(C)n2)nc1-c1c[nH]c2c(N3Cc4c(NC(=O)C5CCCCCC5)cccc4C3=O)cccc12 [Example 312, N-(2-(3-(2-((1,5-dimethyl-1H-pyrazol-3-yl)amino)-5-methylpyrimidin-4-yl)-1H-indol-7-yl)-1-oxoisoindolin-4-yl)cycloheptanecarboxamide] | 10 to 100 nM
20 | Cc1cnc(Nc2cc(C)n(C)n2)nc1-c1c[nH]c2c(N3Cc4c(NC(=O)N5CCNC5=O)cccc4C3=O)cccc12 [Example 313, N-(2-(3-(2-((1,5-dimethyl-1H-pyrazol-3-yl)amino)-5-methylpyrimidin-4-yl)-1H-indol-7-yl)-1-oxoisoindolin-4-yl)-2-oxoimidazolidine-1-carboxamide] | < 10 nM
21 | Cc1cnc(Nc2cc(C)n(C)n2)nc1-c1c[nH]c2c(N3Cc4c(NC(=O)C5Cc6ccccc6C5)cccc4C3=O)cccc12 [Example 314, N-(2-(3-(2-((1,5-dimethyl-1H-pyrazol-3-yl)amino)-5-methylpyrimidin-4-yl)-1H-indol-7-yl)-1-oxoisoindolin-4-yl)-2,3-dihydro-1H-indene-2-carboxamide] | 10 to 100 nM
22 | Cc1cnc(Nc2cc(C)n(C)n2)nc1-c1c[nH]c2c(N3Cc4c(NC(=O)[C@@H]5CCNC5)cccc4C3=O)cccc12 [Example 315, (R)-N-(2-(3-(2-((1,5-dimethyl-1H-pyrazol-3-yl)amino)-5-methylpyrimidin-4-yl)-1H-indol-7-yl)-1-oxoisoindolin-4-yl)pyrrolidine-3-carboxamide] | < 10 nM
23 | Cc1cnc(Nc2cc(C)n(C)n2)nc1-c1c[nH]c2c(N3Cc4c(NC(=O)[C@H]5CCNC5)cccc4C3=O)cccc12 [Example 316, (S)-N-(2-(3-(2-((1,5-dimethyl-1H-pyrazol-3-yl)amino)-5-methylpyrimidin-4-yl)-1H-indol-7-yl)-1-oxoisoindolin-4-yl)pyrrolidine-3-carboxamide] | 10 to 100 nM
24 | Cc1cnc(Nc2cc(C)n(C)n2)nc1-c1c[nH]c2c(N3Cc4c(NC(=O)[C@@H]5CCC(=O)N5)cccc4C3=O)cccc12 [Example 317, (S)-N-(2-(3-(2-((1,5-dimethyl-1H-pyrazol-3-yl)amino)-5-methylpyrimidin-4-yl)-1H-indol-7-yl)-1-oxoisoindolin-4-yl)-5-oxopyrrolidine-2-carboxamide] | < 10 nM
25 | Cc1cnc(Nc2cc(C)n(C)n2)nc1-c1c[nH]c2c(N3Cc4c(NC(=O)[C@H]5CCC(=O)N5)cccc4C3=O)cccc12 [Example 318, (R)-N-(2-(3-(2-((1,5-dimethyl-1H-pyrazol-3-yl)amino)-5-methylpyrimidin-4-yl)-1H-indol-7-yl)-1-oxoisoindolin-4-yl)-5-oxopyrrolidine-2-carboxamide] | < 10 nM
26 | Cc1cnc(Nc2cc(C)n(C)n2)nc1-c1c[nH]c2c(N3Cc4c(NC(=O)C5CCCNC5)cccc4C3=O)cccc12 (centres unmarked) [Example 319, N-(2-(3-(2-((1,5-dimethyl-1H-pyrazol-3-yl)amino)-5-methylpyrimidin-4-yl)-1H-indol-7-yl)-1-oxoisoindolin-4-yl)piperidine-3-carboxamide] | < 10 nM
